In the test the target is human DGAT1 (Homo sapiens (Human), UniProt O75907). Nature of the test: Human DGAT1 enzyme inhibition test (phospholipid FlashPlate, [14C]decanoyl-CoA). Type of test: biochemical. To be noted: for IC50: lysate of Hep3B cells over-expressing human DGAT1 (5 μg/well), didecanoyl glycerol and [14C]decanoyl-CoA substrates; for in vitro inhibition activity with respect to DGAT1: verbal summary of Table 1. The method, then: The cells were treated with 200 μg/ml G-418(Sigma) once every three days for 4 weeks to over-express the human DGAT1, thereby obtaining a stabilized cell line. The over-expressed cells were put into a homogenization buffer [250 mM sucrose, 10 mM Tris-HCl (pH 7.4), 1 mM EDTA] and lysed by a homogenization apparatus. Then, centrifugation was performed with 600×g for 15 minutes to remove cell residue, and the obtained cells were used for an enzyme inhibition test. Human DGAT-1 and mouse DGAT activity was determined as follows: Assay buffer [20 mM HEPES (pH 7.4), 100 mM MgCl2, 0.04% BSA] containing 500 μM of enzyme substrate (didecanoyl glycerol) and 7.5 μM radiolabeled acyl-CoA substrate ([^14C]decanoyl-CoA) was added to each well of a phospholipid FlashPlate (PerkinElmer Life Sciences). A small aliquot of lysate (5 μg/well) or mouse liver microsome (0.1 mg/well) was added to start the reaction, which was allowed to proceed in a 20° C. bath for 1 hour. and maintained overnight at room temperature. Next day, measurement was performed by Wallac 1450 Microbeta Trilux Liquid Scintillation Counter and Luminometer (PerkinElmer Life Science). […] A calculation method of inhibition degree (%) is as follows.

The values below come from US9321728B2, “Beta-alanine derivatives, pharmaceutically acceptable salts thereof, and pharmaceutical composition comprising same as active ingredient” (KOREA RESEARCH INSTITUTE OF CHEMICAL TECHNOLOGY, priority 2012, dated 2016).

Chain of human DGAT1 (O75907 whole entry): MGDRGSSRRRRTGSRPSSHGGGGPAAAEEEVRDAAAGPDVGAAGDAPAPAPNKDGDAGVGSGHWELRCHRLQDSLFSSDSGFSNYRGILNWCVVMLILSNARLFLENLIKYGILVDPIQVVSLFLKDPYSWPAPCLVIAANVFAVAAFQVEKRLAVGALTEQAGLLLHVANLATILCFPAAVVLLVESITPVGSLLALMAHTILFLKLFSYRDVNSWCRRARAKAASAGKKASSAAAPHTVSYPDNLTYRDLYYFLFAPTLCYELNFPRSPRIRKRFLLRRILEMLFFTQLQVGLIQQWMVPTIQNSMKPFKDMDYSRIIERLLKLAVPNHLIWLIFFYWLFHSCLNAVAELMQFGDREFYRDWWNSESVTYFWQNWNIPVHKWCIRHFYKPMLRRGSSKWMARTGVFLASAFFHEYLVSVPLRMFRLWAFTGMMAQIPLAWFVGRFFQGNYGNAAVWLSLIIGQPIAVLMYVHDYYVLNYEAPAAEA

Regarding `CCOc1ccc(C(=O)NCCC(=O)Nc2ccc([C@H]3CC[C@H](CC(=O)O)CC3)cc2)cc1` [Compound 4, trans-(4-{4-[3-(4-ethoxybenzoylamino)propionylamino]phenyl}cyclohexyl)acetic acid], the half-inhibitory concentration (IC50) – broadly, the concentration at which inhibition is half-maximal – was below 50 nM and the “in vitro inhibition activity with respect to DGAT1” value (shortened to “in vitro inhibition activity”) is on record as “good to excellent”. The like results for `O=C(O)C[C@H]1CC[C@H](c2ccc(NC(=O)CCNC(=O)c3nc(-c4ccccc4)oc3C(F)(F)F)cc2)CC1` [Compound 6, trans-[4-(4-{3-[(2-Phenyl-5-trifluoromethyloxazole-4-carbonyl)amino]propionylamino}phenyl)cyclohexyl]acetic acid] were, in that order, below 50 nM and “good to excellent”. The compound `O=C(O)C[C@H]1CC[C@H](c2ccc(NC(=O)CCNC(=O)c3cn(-c4ccccc4)nc3C(F)(F)F)cc2)CC1` [Compound 7, trans-[4-(4-{3-[(1-phenyl-3-trifluoromethyl-1H-pyrazole-4-carbonyl)amino]propionylamino}phenyl)cyclohexyl]acetic acid] yielded a concentration for half-maximal inhibition (IC50) below 100 nM. As to `O=C(O)C[C@H]1CC[C@H](c2ccc(NC(=O)CCNC(=O)c3nc(-c4ccccc4Cl)oc3C(F)(F)F)cc2)CC1` [Compound 11, trans-{4-[4-(3-{[2-(2-chlorophenyl)-5-trifluoromethyloxazole-4-carbonyl]amino}propionylamino)phenyl]cyclohexyl}acetic acid], the concentration for half-maximal inhibition (IC50) is below 50 nM and the “in vitro inhibition activity” value is reported as “good to excellent”. For `O=C(O)C[C@H]1CC[C@H](c2ccc(NC(=O)CCNC(=O)c3oc(-c4ccccc4)nc3C(F)(F)F)cc2)CC1` [Compound 15, trans-[4-(4-{3-[(2-phenyl-4-trifluoromethyloxazole-5-carbonyl)amino]propionylamino}phenyl)cyclohexyl]acetic acid], the IC50 is below 100 nM. Same read-out and setting: to `Cc1ccc(-c2nc(C(=O)NCCC(=O)Nc3ccc([C@H]4CC[C@H](CC(=O)O)CC4)cc3)c(C(F)(F)F)o2)cc1` [Compound 19, trans-[4-(4-{3-[(2-p-tolyl-5-trifluoromethyloxazole-4-carbonyl)amino]propionylamino}phenyl)cyclohexyl]acetic acid] belongs below 100 nM; to `Cc1ccccc1-c1nc(C(=O)NCCC(=O)Nc2ccc([C@H]3CC[C@H](CC(=O)O)CC3)cc2)c(C(F)(F)F)o1` [Compound 21, trans-[4-(4-{3-[(2-o-tolyl-5-trifluoromethyloxazole-4-carbonyl)amino]propionylamino}phenyl)cyclohexyl]acetic acid], below 100 nM. Still for that read-out and setting: to `O=C(O)C[C@H]1CC[C@H](c2ccc(NC(=O)CCNC(=O)c3nc(-c4ccccc4)oc3C(F)(F)F)cc2)CC1` [Compound 22, sodium; trans-[4-(4-{3-[(2-phenyl-5-trifluoromethyloxazole-4-carbonyl)amino]propionylamino}phenyl)cyclohexyl]acetate] belongs below 500 nM; to `O=C(O)C[C@H]1CC[C@H](c2ccc(NC(=O)CCNC(=O)c3nc(-c4ccc(Br)cc4)oc3C(F)(F)F)cc2)CC1` [Compound 27, trans-{4-[4-(3-{[2-(4-bromophenyl)-5-trifluoromethyloxazole-4-carbonyl]amino}propionylamino)phenyl]cyclohexyl}acetic acid], below 100 nM; to `Cc1oc(-c2ccccc2)nc1C(=O)NCCC(=O)Nc1ccc([C@H]2CC[C@H](CC(=O)O)CC2)cc1` [Compound 31, trans-[4-(4-{3-[(5-methyl-2-phenyloxazole-4-carbonyl)amino]propionylamino}phenyl)cyclohexyl]acetic acid], below 100 nM.

Compound `Cc1nc(-c2ccccc2)sc1C(=O)NCCC(=O)Nc1ccc([C@H]2CC[C@H](CC(=O)O)CC2)cc1` [Compound 33, trans-[4-(4-{3-[(4-methyl-2-phenylthiazole-5-carbonyl)amino]propionylamino}phenyl)cyclohexyl]acetic acid] gave a 50% inhibitory concentration (IC50) below 500 nM. The compound `O=C(O)C[C@H]1CC[C@H](c2ccc(NC(=O)CCNC(=O)c3sc(-c4ccccc4)nc3C(F)(F)F)cc2)CC1` [Compound 37, trans-[4-(4-{3-[(2-phenyl-4-trifluoromethylthiazole-5-carbonyl)amino]propionylamino}phenyl)cyclohexyl]acetic acid] gave an IC50 below 100 nM. For the compound `NC(=O)C[C@H]1CC[C@H](c2ccc(NC(=O)CCNC(=O)c3nc(-c4ccccc4)oc3C(F)(F)F)cc2)CC1` [Compound 41, trans-2-phenyl-5-trifluoromethyloxazole-4-carboxylic acid{2-[4-(4-carbamoylmethylcyclohexyl)phenylcarbamoyl]ethyl}amide], the IC50 is below 50 nM and the “in vitro inhibition activity” value was “good to excellent”. In turn, `Cc1ccc(-n2cc(C(=O)NCCC(=O)Nc3ccc([C@H]4CC[C@H](CC(=O)O)CC4)cc3)c(C(F)(F)F)n2)cc1` [Compound 47, trans-[4-(4-{3-[(1-p-tolyl-3-trifluoromethyl-1H-pyrazole-4-carbonyl)amino]propionylamino}phenyl)cyclohexyl]acetic acid] returned an IC50 below 100 nM. Compound `O=C(O)C[C@H]1CC[C@H](c2ccc(NC(=O)CCNC(=O)c3cn(-c4ccc(Cl)cc4)nc3C(F)(F)F)cc2)CC1` [Compound 49, trans-{4-[4-(3-{[1-(4-chlorophenyl)-3-trifluoromethyl-1H-pyrazole-4-carbonyl]amino}propionylamino)phenyl]cyclohexyl}acetic acid] gave an IC50 below 100 nM. `O=C(O)C[C@H]1CC[C@H](c2ccc(NC(=O)CCNC(=O)c3cn(-c4ccccc4Cl)nc3C(F)(F)F)cc2)CC1` [Compound 51, trans-{4-[4-(3-{[1-(2-Chlorophenyl)-3-trifluoromethyl-1H-pyrazole-4-carbonyl]amino}propionylamino)phenyl]cyclohexyl}acetic acid]: the concentration for half-maximal inhibition (IC50) was below 100 nM. On the same count and under the same terms, to `O=C(O)C[C@H]1CC[C@H](c2ccc(NC(=O)CCNC(=O)c3nc(-c4ccc(F)cc4)oc3C(F)(F)F)cc2)CC1` [Compound 56, trans-{4-[4-(3-{[2-(4-fluorophenyl)-5-trifluoromethyloxazole-4-carbonyl]amino}propionylamino)phenyl]cyclohexyl}acetic acid] belongs below 500 nM; to `O=C(O)C[C@H]1CC[C@H](c2ccc(NC(=O)CCNC(=O)c3ccc(OCC4CC4)cc3)cc2)CC1` [Compound 58, trans-(4-{4-[3-(4-cyclopropylmethoxybenzoylamino)propionylamino]phenyl}cyclohexyl)acetic acid], below 500 nM.

For `O=C(O)C[C@H]1CC[C@H](c2ccc(NC(=O)CCNC(=O)c3nc(-c4ccccc4F)oc3C(F)(F)F)cc2)CC1` [Compound 60, trans-{4-[4-(3-{[2-(2-Fluorophenyl)-5-trifluoromethyloxazole-4-carbonyl]amino}propionylamino)phenyl]cyclohexyl}acetic acid], the concentration for half-maximal inhibition (IC50) is below 50 nM and the “in vitro inhibition activity” value is “good to excellent”. Taken in the same sequence, the figures for `O=C(O)C[C@H]1CC[C@H](c2ccc(NC(=O)CCNC(=O)c3nc(-c4ccc(Cl)cc4Cl)oc3C(F)(F)F)cc2)CC1` [Compound 64, trans-{4-[4-(3-{[2-(2,4-dichlorophenyl)-5-trifluoromethyloxazole-4-carbonyl]amino}propionylamino)phenyl]cyclohexyl}acetic acid] were below 50 nM and “good to excellent”. Taken in the same sequence, the figures for `O=C(O)C[C@H]1CC[C@H](c2ccc(NC(=O)CCNC(=O)c3nc(-c4ccccc4Br)oc3C(F)(F)F)cc2)CC1` [Compound 65, trans-{4-[4-(3-{[2-(2-Bromophenyl)-5-trifluoromethyloxazole-4-carbonyl]amino}propionylamino)phenyl]cyclohexyl}acetic acid] were below 50 nM and “good to excellent”. Taken in the same sequence, the figures for `O=C(O)C[C@H]1CC[C@H](c2ccc(NC(=O)CCNC(=O)c3nc(-c4ccccc4C(F)(F)F)oc3C(F)(F)F)cc2)CC1` [Compound 66, trans-{4-[4-(3-{[5-trifluoromethyl-2-(2-trifluoromethylphenyl)oxazole-4-carbonyl]amino}propionylamino)phenyl]cyclohexyl}acetic acid] were below 50 nM and “good to excellent”. For `O=C(O)C[C@H]1CC[C@H](c2ccc(NC(=O)CCNC(=O)c3nc(-c4c(Cl)cccc4Cl)oc3C(F)(F)F)cc2)CC1` [Compound 68, trans-{4-[4-(3-{[2-(2,6-dichlorophenyl)-5-trifluoromethyloxazole-4-carbonyl]amino}propionylamino)phenyl]cyclohexyl}acetic acid], the concentration for half-maximal inhibition (IC50) is below 50 nM and the “in vitro inhibition activity” value is “good to excellent”. `O=C(O)C[C@H]1CC[C@H](c2ccc(NC(=O)CCNC(=O)c3nc(-c4c(Cl)cccc4Cl)oc3C(F)(F)F)cc2)CC1` [Compound 69, sodium; trans-{4-[4-(3-{[2-(2,6-dichlorophenyl)-5-trifluoromethyloxazole-4-carbonyl]amino}propionylamino)phenyl]cyclohexyl}acetate] came in with an IC50 below 50 nM.
